# Target: PspF1−275 (Escherichia coli, UniProt P37344)
# Experiment: analytical gel filtration, ADP-dependent dimer-to-hexamer shift
# Format: binding
# Conditions: 0.5 mM ADP, 10 μM protein, pH 8.0, 15 mM MgCl2, room temperature
# PspF1−275, sequence (P37344 1-275): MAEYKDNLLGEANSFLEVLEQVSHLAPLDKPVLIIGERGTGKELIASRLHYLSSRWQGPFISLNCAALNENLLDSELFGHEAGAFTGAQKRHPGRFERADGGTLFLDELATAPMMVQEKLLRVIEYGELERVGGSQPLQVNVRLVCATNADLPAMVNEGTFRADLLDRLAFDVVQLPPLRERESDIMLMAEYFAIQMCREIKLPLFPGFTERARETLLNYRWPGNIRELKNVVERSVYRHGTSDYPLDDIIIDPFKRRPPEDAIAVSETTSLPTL
structure (smiles),measurement,value
Nc1ncnc2c1ncn2[C@@H]1O[C@H](COP(=O)(O)OP(=O)(O)O)[C@@H](O)[C@H]1O [ADP],"analytical gel filtration, ADP-dependent dimer-to-hexamer shift",dimers (Fig. 4A) in the absence of nucleotide and hexamers in the presence of ADP

# — publication PMC2745333 (Molecular Microbiology, 2009)
